Measurements: patent US20230165865A1, “HETEROARYLDIHYDROPYRIMIDINE DERIVATIVES AND METHODS OF TREATING HEPATITIS B INFECTIONS” (Janssen Pharmaceutica NV, priority 2018, published 2023)
Where two headings read alike, the source gives them in different places.

Columns and labels:
[1] = tested on: HepG2.2.15 cells; experiment: Cytotoxicity determination in HepG2.2.15 cells (CCK-8 assay); assay type: cell-based; conditions: 6 days treatment, CCK-8, highest concentration 100 uM
Outline: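 HepG2.2.15 cells (5,000/well, 2% FBS medium) were treated for 6 days, with medium and compound refreshed at day 3. Dosing was an 8-point 1:3 series from 100 uM, in triplicate. Viability was measured by CCK-8 after 2.5 h at 37 °C (A450, 630 nm reference), and CC50 was calculated.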

[2] = Pharmacokinetic study after intravenous and oral administration in male SD rats; assay type: in vivo; conditions: for clearance / Cmax: male, SD; for clearance / Cmax / IV AUCinf/Dose / PO AUCinf/Dose / clearance, in words / dose-normalized AUC (AUCinf/Dose), in words: rat plasma; for clearance / IV AUCinf/Dose: IV, nominal 2 mg/kg; for clearance: read-out: IV Cl; for Cmax / PO AUCinf/Dose: PO; for Cmax: nominal 5 mg/kg; for clearance, in words / dose-normalized AUC (AUCinf/Dose), in words / bioavailability (F (%)), in words: comparing with reference 2; for F / bioavailability (F (%)), in words: rat; for F: PO vs IV
Experimental: Male SD rats with a weight range of 250-300 g (Si Bei Fu Laboratory Animal Technology Co. Ltd, China) were used. Animals were fasted overnight and free access to food 4 hours after dosing.
Test compound (correction factor: 1.00) was dissolved in a 20% hydroxypropyl-β-cyclodextrin (HP-β-CD) at a final concentration of 1 mg/ml for the intravenous (IV) formulation and at final concentrations of 0.5 mg/ml for the oral (PO) formulation.
The intravenous formulation was dosed at 2 ml/kg to obtain a dose of 2 mg/kg. The oral formulations were dosed at 10 ml/kg to obtain final doses of 5 mg/kg.
Blood samples were taken at 5, 15 and 30 min, 1, 2, 4, 8 and 24 h after intravenous dose administration. Blood samples were taken at 15 and 30 min, 1, 2, 4, 8, 12 and 24 h after oral dose administration.
Approximately 0.20 mL blood will be collected into BD blood collection tubes containing Sodium Fluoride (NaF), Potassium Oxalate (KoX) and K3-EDTA at each time point. Samples were placed immediately on melting ice and plasma was obtained following centrifugation at 4° C. for 5 minutes at approximately 4000×g. Plasma samples were adjusted to pH 3-4 by phosphoric acid and stored at −75±15° C. prior to analysis. The whole process was completed within 1 hour.
Plasma samples were analyzed using LC-MS/MS methods. The lower limit of quantification (LLOQ) for plasma was 1.0 ng/ml.
A non-compartmental analysis using the “Linear up log down” rule was used for all data. A limited pharmacokinetic analysis was performed using Phoenix™ Professional (Version 6.1). Results: See table 10 below for plasma PK results.

[3] = Metabolic stability of test compound in human hepatocyte cell; assay type: in vitro ADME; conditions: cryopreserved human hepatocytes (suspension), human hepatocytes; for half-life at 1 uM: 0-120 min, read-out: T½; for CLint scaled at 1 uM: scale-up intrinsic clearance, scaling factor 2544.3, read-out: Clint (liver)
Experimental: (§1) • 1. The cryopreserved human hepatocytes cells were thawed in 37° C. water bath and diluted with pre-warmed incubation medium to a working cell density of 1×10^6 viable cells/mL. • 2. The 198 μL pre-warmed hepatocyte suspensions were spiked with 2 μL of 100 μM compound or reference compound(Verapamil) at a final concentration of 1.0 μM in a 96-well plate. The plate was incubated at 37° C., 900 rpm. All incubations will be performed in singlet. • 3. 25 μL aliquots of well contents were collected at time points of 0, 15, 30, 60, 90 and 120 minutes. The reactions were stopped by the addition of 6-fold volumes of cold acetonitrile with internal standards. • 4. After centrifugation for 25 minutes at 3,220 g. Aliquot of 100 μL of the supernatant was mixed with 100 μL of ultra-pure H2O and then used for LC-MS/MS analysis.
(§2) All calculations were carried out using Microsoft Excel. Peak areas were determined from extracted ion chromatograms. Determine the in vitro half-life (t1/2) of parent compound by regression analysis of the percent parent disappearance vs. time curve.
(§3) The in vitro half-life (in vitro t1/2) is determined from the slope value k:
(§4) Conversion of the in vitro t1/2(in min) into the in vitro intrinsic clearance (in vitro CLint, in μL/min/10^6 cells) is done using the following equation:
(§5) V=incubation volume (0.2 mL);
(§6) N=number of hepatocytes per well (0.2×10^6 cells).
(§7) Conversion of the in vitro t1/2(in min) into the scale-up intrinsic clearance (CLint(liver), in mL/min/kg) was done using the following equation:
(§8) CLint(liver)=kV/N×scaling factor

[4] = tested on: human hepatocytes; experiment: as above; assay type: in vitro ADME; conditions: for metabolic stability in human hepatocyte cells, in words: comparing with reference 1 and reference 2
Experimental: as §1, §2, §3, §4, §5, §6, §7, §8

[5] = tested on: HBV; experiment: Anti-viral assay in HepG2.2.15 cells: anti-HBV activity, HBV DNA in culture medium by qPCR; assay type: cell-based; conditions: HepG2.2.15 cells, 6 days treatment, HBV DNA by qPCR; read-out: EC50
Outline: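 Cells in 2% FBS medium treated 6 days, compound and medium refreshed at day 3; 8-point 1:3 dilutions in triplicate, top 10 or 1 uM (antiviral) and 100 uM (cytotoxicity). Extracellular viral DNA quantified by qPCR, giving EC50 and CC50.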

[6] = Pharmacokinetic and tissue distribution study via intravenous and oral administration in male C57BL/6 mice; assay type: in vivo; conditions: for Kp: liver and plasma, po; for F: PO vs IV
Experimental: Male C57BL/6 mice with a weight range of 20-25 g (Hua Fu Kang, China) were used. Animals were fasted overnight and free access to food 4 hours after dosing.
Test compound (correction factor: 1.00) was dissolved in a 20% hydroxypropyl-β-cyclodextrin (HP-β-CD) at a final concentration of 1 mg/ml for the intravenous (IV) formulation and at final concentrations of 0.5 mg/ml for the oral (PO) formulation. The intravenous formulation was dosed at 2 ml/kg to obtain a dose of 2 mg/kg. The oral formulations were dosed at 10 ml/kg to obtain final doses of 5 mg/kg.
Blood samples were taken at 7 and 20 min, 1, 2, 4, 8 and 24 h after intravenous dose administration. Blood and liver samples were taken at 30 min, 1, 2, 4, 8, 12 and 24 h after oral dose administration.
Approximately 0.020 mL blood will be collected into BD blood collection tubes containing K3-EDTA at each time point. Samples were placed immediately on melting ice and plasma was obtained following centrifugation at 4° C. for 5 minutes at approximately 4000×g. Plasma samples were adjusted to pH 3-4 by phosphoric acid and stored at −75±15° C. prior to analysis. The whole process was completed within 1 hour.
Liver samples were collected at adopted time point, and the vial containing the tissues sample was snap-frozen in liquid nitrogen right away and kept at −75±15° C. prior to analysis. All liver samples were weighed and homogenized with phosphoric acid solution (pH to 3-4) by liver weight (g) to phosphoric acid solution volume (mL) ratio 1:4 before analysis.
Plasma and liver samples were analyzed using LC-MS/MS methods. The lower limit of quantification (LLOQ) for plasma was 1.0 ng/ml and for liver was 2.5 ng/g. A non-compartmental analysis using the “Linear up log down” rule was used for all data. A limited pharmacokinetic analysis was performed using Phoenix™ Professional (Version 6.1).

[7] = mice plasma, IV, nominal 2 mg/kg

Structure (SMILES)	CC50 [1] [µM]	clearance [2] [mL/min/kg]	Cmax [2] [ng/mL]	IV AUCinf/Dose [2] [ng·kg·h/mg/mL]	PO AUCinf/Dose [2] [ng·kg·h/mg/mL]	clearance, in words [2]	dose-normalized AUC (AUCinf/Dose), in words [2]	F [2] [%]	bioavailability (F (%)), in words [2]	half-life at 1 uM [3] [h]	CLint scaled at 1 uM [3] [mL/min/kg]	metabolic stability in human hepatocyte cells, in words [4]	EC50 [5] [µM]	Liver AUCinf/Dose ([6]; mice liver, PO) [ng·kg·h/g/mg]	Liver Cmax/Dose ([6]; mice liver, PO) [kg·ng/mg/mL]	IV AUCinf/Dose [6, 7] [ng·kg·h/mg/mL]	PO AUCinf/Dose ([6]; mice plasma, PO) [ng·kg·h/mg/mL]	F ([6]; mice) [%]	also measured
COC(=O)C1=C(CN2CCN3C(=S)N(CC(C)(C)C(=O)O)CC3C2)NC(c2nccs2)=NC1c1ccc(F)cc1Cl (single isomer, unassigned) [Compound 4B, 3-(7-((6-(2-chloro-4-fluorophenyl)-5-(methoxycarbonyl)-2-(thiazol-2-yl)-3,6-dihydropyrimidin-4-yl)methyl)-3-thioxohexahydroimidazo[1,5-a]pyrazin-2(3H)-yl)-2,2-dimethylpropanoic acid]	23.1	28.8	962	594.3	336.8	far slower clearance	over two-folds higher	56.5	increased (or equal) bioavailability	> 4.82	< 6.1	improved metabolic stability	0.0019	–	–	–	–	–	–
CCOC(=O)C1=C(CN2CCN3C(=S)N(CC(C)(C)C(=O)O)CC3C2)NC(c2nccs2)=NC1c1cccc(F)c1Cl (single isomer, unassigned) [Compound 3B, 3-(7-((6-(2-chloro-3-fluorophenyl)-5-(ethoxycarbonyl)-2-(thiazol-2-yl)-3,6-dihydropyrimidin-4-yl)methyl)-3-thioxohexahydroimidazo[1,5-a]pyrazin-2(3H)-yl)-2,2-dimethylpropanoic acid]	17.8	23.4	1180	771.6	389.2	far slower clearance	over two-folds higher	50.3	increased (or equal) bioavailability	2.91	10.1	improved metabolic stability	0.0017	20884	6624	830.9	1049.3	126	Kp ([6]; male, C57BL/6, mouse, mice, PO, read-out: AUCInf Ratio (Liver/Plasma)): 19.9; Kp ([6]; male, C57BL/6, mouse, mice, PO, read-out: Cmax Ratio (Liver/Plasma)): 15.3; clearance ([6]; male, C57BL/6, mouse, mice plasma, IV, nominal 2 mg/kg, read-out: IV Cl): 20.2 mL/min/kg; Cmax ([6]; male, C57BL/6, mouse, mice plasma, PO, dose per compound in table (5.28-9.95 mg/kg)): 2340 ng/mL; dose-normalized Cmax and dose-normalized AUCinf in liver, in words ([6]; mice liver, comparing with reference 1 and reference 2): far increased; clearance, in words ([6]; mice plasma, comparing with reference 1 and reference 2): far slower clearance; bioavailability in plasma, in words ([6]; mice, comparing with reference 1 and reference 2): increased bioavailability
CCOC(=O)C1=C(CN2CCOCC2)NC(c2nccs2)=NC1c1ccc(F)cc1Br (centres unmarked) [Reference 1, GLS4, reference compound]	–	–	–	–	–	–	–	–	–	–	–	–	–	69.2	5.1	232.5	17.3	7.5	IV Cl [6, 7]: 73.9 mL/min/kg; PO Cmax ([6]; mice plasma, PO, dose per compound in table (5.28-9.95 mg/kg)): 14.5 ng/mL; T½ ([4]; human hepatocytes, 1.0 μM, 0-120 min): 0.255 h; Clint (liver) ([4]; human hepatocytes, scale-up intrinsic clearance, scaling factor 2544.3): 115.3 mL/min/kg
